Measurements published in patent US20100021885A1, “REAGENT SETS AND GENE SIGNATURES FOR NON-GENOTOXIC HEPATOCARCINOGENICITY” (priority 2006, published 2010).
Where two headings read alike, the source gives them in different places.

Experiments:
[1] = system: livers from treated male Sprague-Dawley rats
Experimental: Briefly, in vivo short-term repeat dose rat studies were conducted on over 580 test compounds, including marketed and withdrawn drugs, environmental and industrial toxicants, and standard biochemical reagents. Rats (three per group) were dosed daily at either a low or high dose. […] Animals were necropsied on days 0.25, 1, 3, and 5 or 7. Up to 13 tissues (e.g., liver, kidney, heart, bone marrow, blood, spleen, brain, intestine, glandular and nonglandular stomach, lung, muscle, and gonads) were collected for histopathological evaluation and microarray expression profiling on the Amersham CodeLink™ RU1 platform (also referred to herein as “CodeLink Uniset™ Rat 1 Bioarray”). In addition, a clinical pathology panel consisting of 37 clinical chemistry and hematology parameters was generated from blood samples collected on days 3 and 5.
The remaining 21 NGTC chemicals and 26 NC chemicals were reserved for independent validation of the signature. Each chemical was evaluated in a short term repeat dose in vivo study in male Sprague-Dawley rats (n=3/group). The livers from treated and control rats were collected after 1, 3 and 5 days of dosing and RNA was extracted for gene expression profiling. Gene expression changes in treated animals were compared to suitably matched controls and represented as average log10 ratios for each treatment group. Since the development of tumors is a long term multi-step process, the 100 training set chemicals were profiled at the latest time point in order to capture gene expression changes that were likely to be reflective of repeat dose treatment effects that contribute to carcinogenicity and not reflective of an initial stimulus following a single dose that may be transient in nature.
Male Sprague-Dawley (Crl:CD®(SD)(IGS)BR) rats (weight matched, 7 to 8 weeks of age and averaging 200 to 250 g) were purchased from Charles River Laboratories (Portage, Mich.) and housed individually in hanging, stainless steel, wire-bottom cages in a temperature (66-77° F.), light (12-hour dark/light cycle) and humidity (30-70%) controlled room. […] Housing and treatment of the animals were in accordance with regulations outlined in the USDA Animal Welfare Act (9 CFR Parts 1, 2 and 3). Animals were assigned to groups such that mean body weights were within 10% of the mean vehicle control group. Test articles were administered either orally (10 ml of corn oil/kg body weight) or by intra-peritoneal injection (5 ml of saline/kg body weight), as indicated. Animals were dosed once daily starting on day 0, and necropsied 24 hrs after the last dose, as indicated. An equivalent number of time- and vehicle-matched control rats were treated concurrently.
Briefly, liver samples from 3 rats were chosen from each treatment and control group for gene expression analysis on the Codelink Uniset™ Rat 1 Bioarray (GE Healthcare Bio-Sciences Corp., Piscataway, N.J.). A complete list of probes on the array is provided on the Amersham Biosciences web site (www.amershambiosciences.com). Log transformed signal data for all probes were array-wise normalized used Array Qualifier (Novation Biosciences, Palo Alto, Calif.), a non-linear centralization normalization procedure adapted for the CodeLink microarray platform. Log10 ratios for each experimental group are computed as the difference between the average of the logs of the normalized experimental signals and the average of the logs of the normalized control signals for each gene.
where S is the scalar product and b is the bias term. Evaluation of S for a test experiment across the n genes in the signature determines what side of the hyperplane in m dimensional space the test experiment lies, and thus the result of the classification. Experiments with scalar products greater than 0 are considered positive for non-genotoxic hepatocarcinogenicity.

[2] = system: liver of rats; details: cited from earlier work
[3] = 37 gene signature, maximum scalar product over days 1, 3 and 5, scalar product greater than zero = positive
[4] = maximum of days 1, 3, 5, greater than zero = classified non-genotoxic hepatocarcinogen
[5] = male, Sprague-Dawley, rat, in vivo
[6] = test chemicals, literature class NGTC or NC

CC(=O)Nc1ccc2c(c1)Cc1ccccc1-2 [2-acetylaminofluorene, reference compound]
signature prediction for non-genotoxic hepatocarcinogenicity [1, 3]: weakly positive
scalar product (SP) ([1]; 37 gene signature, maximum scalar product over the time points): 0.03
Max (maximum scalar product observed over the multiple time points) [1, 4]: 0.03
Class ([2]; genotoxic hepatocarcinogens section): GTC

OC(Cn1cncn1)(Cn1cncn1)c1ccc(F)cc1F [FLUCONAZOLE]
Max (maximum scalar product observed over the multiple time points) [1, 5]: 3.63
Class [2, 6]: NGTC

CC[C@H](C)C(=O)O[C@H]1C[C@@H](C)C=C2C=C[C@H](C)[C@H](CC[C@@H]3C[C@@H](O)CC(=O)O3)[C@H]21 [LOVASTATIN]
Max (maximum scalar product observed over the multiple time points) [1, 5]: 1.07
Class [2, 6]: NGTC

ClC(Cl)(Cl)Cl [carbon tetrachloride, reference compound]
signature prediction for non-genotoxic hepatocarcinogenicity [1, 3]: positive
Max (maximum scalar product observed over the multiple time points) [1, 4]: 0.50
Class [2, 6]: NGTC

CC(C)(Oc1ccc(CCNC(=O)c2ccc(Cl)cc2)cc1)C(=O)O [BEZAFIBRATE]
Max (maximum scalar product observed over the multiple time points) [1, 5]: 2.72
Class [2, 6]: NGTC

COC(=O)Nc1nc2ccc([S+]([O-])c3ccccc3)cc2[nH]1 (stereo not shown) [OXFENDAZOLE]
Max (maximum scalar product observed over the multiple time points) [1, 5]: 0.32
Class [2, 6]: NGTC

C[C@]12CC[C@H]3[C@@H](CCC4=CC(=O)CC[C@@]43C)[C@@H]1CC[C@@H]2O [TESTOSTERONE]
Day 1 (scalar product) ([1]; male, rat, in vivo): 0.25
Day 3 (scalar product) ([1]; male, rat, in vivo): 0.45
Day 5 (scalar product) ([1]; male, rat, in vivo): −0.63
Max (maximum scalar product observed over the multiple time points) ([1]; male, rat, in vivo): 0.45
Class ([2]; rat, in vivo): NGTC

ClC(Cl)Cl [chloroform, reference compound]
Day 1 (scalar product) ([1]; male, rat, in vivo): 1.50
Day 3 (scalar product) ([1]; male, rat, in vivo): 0.74
Day 5 (scalar product) ([1]; male, rat, in vivo): 0.27
Max (maximum scalar product observed over the multiple time points) ([1]; male, rat, in vivo): 1.50
Class ([2]; rat, in vivo): NGTC

O=c1cc(-c2ccccc2)oc2ccc3ccccc3c12 [BETA-NAPHTHOFLAVONE]
Max (maximum scalar product observed over the multiple time points) [1, 4]: 0.81
Class [2, 6]: NGTC

CC(=O)O[C@]1(C(C)=O)CC[C@H]2[C@@H]3C=C(Cl)C4=CC(=O)[C@@H]5C[C@@H]5[C@]4(C)[C@H]3CC[C@@]21C [CYPROTERONE ACETATE]
Max (maximum scalar product observed over the multiple time points) [1, 5]: 1.16
Class [2, 6]: NGTC

NC(=O)N1c2ccccc2C=Cc2ccccc21 [CARBAMAZEPINE]
Max (maximum scalar product observed over the multiple time points) [1, 5]: −0.35
Class [2, 6]: NGTC

NN [hydrazine, reference compound]
Day 1 (scalar product) ([1]; male, rat, in vivo): −0.10
Day 3 (scalar product) ([1]; male, rat, in vivo): −1.31
Day 5 (scalar product) ([1]; male, rat, in vivo): −1.48
Max (maximum scalar product observed over the multiple time points) ([1]; male, rat, in vivo): −0.10
signature prediction for non-genotoxic hepatocarcinogenicity ([1]; rat, in vivo): negative
Class ([2]; rat, in vivo): GTC

CC(=O)S[C@@H]1CC2=CC(=O)CC[C@]2(C)[C@H]2CC[C@@]3(C)[C@@H](CC[C@@]34CCC(=O)O4)[C@H]12 [SPIRONOLACTONE]
Max (maximum scalar product observed over the multiple time points) [1, 5]: 0.37
Class [2, 6]: NGTC

COC(=O)Nc1nc2ccc(Sc3ccccc3)cc2[nH]1 [FENBENDAZOLE]
Max (maximum scalar product observed over the multiple time points) [1, 4]: 0.17
Class [2, 6]: NGTC

CCCCC(CC)COC(=O)c1ccccc1C(=O)OCC(CC)CCCC (stereo not shown) [BIS(2-ETHYLHEXYL)PHTHALATE]
Day 1 (scalar product) ([1]; rat, in vivo): 0.47
Day 3 (scalar product) ([1]; rat, in vivo): 1.04
Day 5 (scalar product) ([1]; rat, in vivo): −0.09
Max (maximum scalar product observed over the multiple time points) ([1]; rat, in vivo): 1.04
Class ([2]; rat, in vivo): NGTC

C[C@]12Cc3c[nH]nc3C[C@@H]1CC[C@@H]1[C@@H]2CC[C@@]2(C)[C@H]1CC[C@]2(C)O [STANOZOLOL]
Max (maximum scalar product observed over the multiple time points) [1, 4]: 0.54
Class [2, 6]: NGTC

CCN(CC)N=O [N-nitrosodiethylamine, reference compound]
Day 1 (scalar product) ([1]; male, rat, in vivo): −2.17
Day 3 (scalar product) ([1]; male, rat, in vivo): −1.83
Day 5 (scalar product) ([1]; male, rat, in vivo): −1.41
Max (maximum scalar product observed over the multiple time points) ([1]; male, rat, in vivo): −1.41
signature prediction for non-genotoxic hepatocarcinogenicity ([1]; rat, in vivo): negative
Class ([2]; rat, in vivo): GTC

CC[C@]1(O)CC[C@H]2[C@@H]3CCC4=CCCC[C@@H]4[C@H]3CC[C@@]21C [ETHYLESTRENOL]
Max (maximum scalar product observed over the multiple time points) [1, 4]: 2.25
Class [2, 6]: NGTC

CC/C(=C(/CC)c1ccc(O)cc1)c1ccc(O)cc1 [DIETHYLSTILBESTROL]
Max (maximum scalar product observed over the multiple time points) [1, 5]: 2.75
Class [2, 6]: NGTC
